Assay results taken from ChEMBL document CHEMBL1201862, “PubChem BioAssay data set” (2004).
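Cultured in 96-well plates, cells were exposed to test compound for 48 hours across five concentrations. The concentration for 50% growth inhibition is given as GI50.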 The source made the active and inactive calls. Cut-off read from the data, not from the text of the source: active = GI50 up to about 1.1 µM and inactive = higher.

Key:
Experiment in all cases: NCI-60 cell line screen, 48 h
SNB-19 = tested on: SNB-19
NCI/ADR-RES = tested on: NCI/ADR-RES
OVCAR-3 = tested on: OVCAR-3
PC-3 = tested on: PC-3
SK-OV-3 = tested on: SK-OV-3
HCC 2998 = tested on: HCC 2998
NCI-H522 = tested on: NCI-H522
IGROV-1 = tested on: IGROV-1
DU-145 = tested on: DU-145
MOLT-4 = tested on: MOLT-4
BT-549 = tested on: BT-549
Hs-578T = tested on: Hs-578T
T47D = tested on: T47D
MCF7 = tested on: MCF7
HT-29 = tested on: HT-29
HCT-116 = tested on: HCT-116
HOP-92 = tested on: HOP-92
SK-MEL-28 = tested on: SK-MEL-28
M14 = tested on: M14
SK-MEL-2 = tested on: SK-MEL-2
K562 = tested on: K562
RPMI-8226 = tested on: RPMI-8226
MDA-MB-435 = tested on: MDA-MB-435
Malme-3M = tested on: Malme-3M
SF-295 = tested on: SF-295
NCI-H460 = tested on: NCI-H460
MDA-N = tested on: MDA-N
SF-539 = tested on: SF-539
SF-268 = tested on: SF-268
786-0 = tested on: 786-0
SW-620 = tested on: SW-620
HCT-15 = tested on: HCT-15
OVCAR-5 = tested on: OVCAR-5
UACC-257 = tested on: UACC-257
CCRF-CEM = tested on: CCRF-CEM
MDA-MB-231 = tested on: MDA-MB-231
OVCAR-8 = tested on: OVCAR-8
UO-31 = tested on: UO-31
A498 = tested on: A498
NCI-H23 = tested on: NCI-H23
COLO 205 = tested on: COLO 205
U-251 = tested on: U-251
SK-MEL-5 = tested on: SK-MEL-5
EKVX = tested on: EKVX
NCI-H226 = tested on: NCI-H226
ACHN = tested on: ACHN
UACC-62 = tested on: UACC-62
HL-60 = tested on: HL-60
HOP-62 = tested on: HOP-62
A549 = tested on: A549
CAKI-1 = tested on: CAKI-1
RXF 393 = tested on: RXF 393
KM12 = tested on: KM12
TK-10 = tested on: TK-10
OVCAR-4 = tested on: OVCAR-4
SNB-75 = tested on: SNB-75
SN12C = tested on: SN12C
LOX IMVI = tested on: LOX IMVI

Question: Which results are given for `CCOC(=O)C(C(=O)c1ccccc1C(=O)OC)=P(c1ccccc1)(c1ccccc1)c1ccccc1`?
Answer: GI50 (SNB-19): > 10 µM (inactive); GI50 (NCI/ADR-RES): > 10 µM (inactive); GI50 (OVCAR-3): > 10 µM (inactive); GI50 (PC-3): > 10 µM (inactive); GI50 (SK-OV-3): > 10 µM (inactive); GI50 (HCC 2998): > 10 µM (inactive); GI50 (NCI-H522): > 10 µM (inactive); GI50 (IGROV-1): > 10 µM (inactive); GI50 (DU-145): > 10 µM (inactive); GI50 (MOLT-4): > 10 µM (inactive); GI50 (BT-549): > 10 µM (inactive); GI50 (Hs-578T): > 10 µM (inactive); GI50 (T47D): > 10 µM (inactive); GI50 (MCF7): > 10 µM (inactive); GI50 (HT-29): > 10 µM (inactive); GI50 (HCT-116): > 10 µM (inactive); GI50 (HOP-92): > 10 µM (inactive); GI50 (SK-MEL-28): > 10 µM (inactive); GI50 (M14): > 10 µM (inactive); GI50 (SK-MEL-2): > 10 µM (inactive); GI50 (K562): > 10 µM (inactive); GI50 (RPMI-8226): > 10 µM (inactive); GI50 (MDA-MB-435): > 10 µM (inactive); GI50 (Malme-3M): > 10 µM (inactive); GI50 (SF-295): > 10 µM (inactive); GI50 (NCI-H460): > 10 µM (inactive); GI50 (MDA-N): > 10 µM (inactive); GI50 (SF-539): > 10 µM (inactive); GI50 (SF-268): > 10 µM (inactive); GI50 (786-0): > 10 µM (inactive); GI50 (SW-620): > 10 µM (inactive); GI50 (HCT-15): > 10 µM; GI50 (OVCAR-5): > 10 µM (inactive); GI50 (UACC-257): > 10 µM (inactive); GI50 (CCRF-CEM): > 10 µM (inactive); GI50 (MDA-MB-231): > 10 µM (inactive); GI50 (OVCAR-8): > 10 µM (inactive); GI50 (UO-31): > 10 µM (inactive); GI50 (A498): > 10 µM (inactive); GI50 (NCI-H23): > 10 µM (inactive); GI50 (COLO 205): > 10 µM (inactive); GI50 (U-251): > 10 µM (inactive); GI50 (SK-MEL-5): > 10 µM (inactive); GI50 (EKVX): > 10 µM (inactive); GI50 (NCI-H226): > 10 µM (inactive); GI50 (ACHN): > 10 µM (inactive); GI50 (UACC-62): > 10 µM (inactive); GI50 (HL-60): > 10 µM (inactive); GI50 (HOP-62): > 10 µM (inactive); GI50 (A549): > 10 µM (inactive); GI50 (CAKI-1): > 10 µM (inactive); GI50 (RXF 393): > 10 µM (inactive); GI50 (KM12): > 10 µM (inactive); GI50 (TK-10): > 10 µM (inactive); GI50 (OVCAR-4): > 10 µM (inactive); GI50 (SNB-75): > 10 µM (inactive); GI50 (SN12C): > 10 µM (inactive); GI50 (LOX IMVI): > 10 µM (inactive)
